Type in all cases: in vivo
For assay [1], the system named is obesity induced mice with high fat diet. Nature of the assay: Autopsy and blood biochemistry examination in high fat diet mice. The note with it: serum, day 49, 16 h fasted, compared to HFD or GC group (FIG. 9). From the text:
(§1) From the time of arrival, all animals underwent a 6-week induction period, including a one-week acclimation period. The mice were divided into normal diet (negative control) and high fat diet (positive control and experiment group) and each fed, while given feed and water ad libitum for 6 weeks from the day of division (day 0). The CJLS03 according to the present disclosure was grouped according to concentrations (low: 10^8 CFU, medium: 10^9 CFU, high: 10^10 CFU). To measure accurate efficacy, a commercially available FDA-approved anti-obesity drug Orlistat (Product name: Zenical), and a health function food Garcinia cambogia were added as experiment groups in addition to the normal diet control group and high fat diet group, and compared with the anti-obesity function of the lactic acid bacterial.
For administration, the lactic acid bacteria were homogeneously suspended in PBS and administered in a 10 mL/kg of administration volume twice daily at determined times (10:00 A.M. to 11:00 A.M., 5:00 P.M. to 6:00 P.M.) for 7 weeks, while the control groups were orally administered with the same amount of solvent vehicle (PBS) twice daily for 7 weeks. Experimental substances were newly prepared and administered into the A.M. and P.M.-administered strain. All strains were stored under refrigeration so as to retain the active condition thereof, and the PBS which was refrigerated was used for washing strain samples and preparing solutions. The experimental animal of each group was fasted for 16 hours and sacrificed on the termination day of experiment (day 49) to be used for blood biochemistry tests and histological evaluation analysis.
On the day of termination of the experiment according to Example 4-1 (day 49), the experimental animals were sacrificed after stopping their diets for 16 hours and autopsied. All of the experimental animals were subjected to collection of about 500 μL to 700 μL of blood using a heparin-free capillary tube of plexus venosus under an ether inhalation anesthesia. The collected blood was put in an SST tube and coagulated for 30 minutes to 1 hour at room temperature. The blood was then centrifuged at 4° C. and 4000 rpm for 10 minutes to separate the serum followed by storing at −80° C. until the analysis. The amounts of glucose (GLU), triglyceride (TG), total cholesterol (TC), low-density lipoprotein cholesterol (LDL), high-density lipoprotein cholesterol (HDL), glutamate oxaloacetate transaminase (GOT; AST), glutamate pyruvate transaminase (GPT; ALT), CREA (creatinine), and lactate dehydrogenase (LDH) in the separated serum were measured using a blood biochemistry (Accute TBA-40FR, Toshiba Medical System Co., Japan).

Assay [2] has the same test system. Kind of assay: Measurement of organ fat weight in high fat diet mice. The following applies: compared with HFD group (FIGS. 10 and 11). From the text: (§2) From the time of arrival, all animals underwent a 6-week induction period, including a one-week acclimation period. The mice were divided into normal diet (negative control) and high fat diet (positive control and experiment group) and each fed, while given feed and water ad libitum for 6 weeks from the day of division (day 0). The CJLS03 according to the present disclosure was grouped according to concentrations (low: 10^8 CFU, medium: 10^9 CFU, high: 10^10 CFU). […]
(§3) For administration, the lactic acid bacteria were homogeneously suspended in PBS and administered in a 10 mL/kg of administration volume twice daily at determined times (10:00 A.M. to 11:00 A.M., 5:00 P.M. to 6:00 P.M.) for 7 weeks, while the control groups were orally administered with the same amount of solvent vehicle (PBS) twice daily for 7 weeks. […]
After blood was collected, the visceral examination was carried out to confirm the presence of abnormalities in the internal organs, and the adipose tissues (epididymal fat, subcutaneous fat, mesenteric fat) were extracted. […] The weight of each adipose tissue was measured with an electronic balance. Additionally, the relative tissue weight per 100 g of body weight was calculated based on the body weight fasted before autopsy (calculation formula: relative organ weight (%)=organ weight (g)/fasting body weight before autopsy (g)×100). […]

Assay [3] has the same test system. Nature of the assay: Histological evaluation of liver tissue (H & E) in high fat diet mice. The note with it: H & E stained liver sections; CJLS03 high concentration group (FIG. 12).
From the text: as §1
For administration, the lactic acid bacteria were homogeneously suspended in PBS and administered in a 10 mL/kg of administration volume twice daily at determined times (10:00 A.M. to 11:00 A.M., 5:00 P.M. to 6:00 P.M.) for 7 weeks, while the control groups were orally administered with the same amount of solvent vehicle (PBS) twice daily for 7 weeks. Experimental substances were newly prepared and administered into the A.M. and P.M.-administered strain. […]
Liver tissues of the ND, HFD, OLS, GC, and high CJLS03 concentration groups were histologically evaluated. […]

For assay [4] the test system is unchanged. Nature of the assay: Measurement of size of adipocytes in high fat diet mice. The note with it: compared to HFD and GC groups; CJLS03 high concentration group (FIG. 13).
From the text: as §2, §3
Measuring the size of adipocytes is well known as an effective method capable of proving the anti-obesity efficacy. […] The adipocyte photos were analyzed using the Scion image program (derived from NIH Image) by calculating an average value of two adipocyte sizes. […]

With `CCCCCCCCCCC[C@@H](C[C@@H]1OC(=O)[C@H]1CCCCCC)OC(=O)[C@H](CC(C)C)NC=O` [OLS, Orlistat], in assay [1], the “concentration of blood HDL” value is recorded as “significantly reduce”, the “concentration of blood LDL” value is on record as “significantly reduce”, the “concentration of blood TC (total cholesterol)” value is listed as “significantly reduce” and the “concentration of blood glucose” value is on record as “significantly reduce”. Besides, the fasting weight result in assay [2] (body weight after 16 h fasting before autopsy) is on record as “lower than those of the HFD group”. In assay [2] (epididymal, subcutaneous, mesenteric fat), the adipose tissue weights result is “lower than those of the HFD group”. Moreover, the “lipid particles in liver tissue” value in assay [3] is “rarely found”. Besides, the “sizes of the adipocytes” value in assay [4] is “significantly reduced”.

The values above are taken from patent US20190262409A1, “NOVEL LACTOBACILLUS SAKEI AND COMPOSITION COMPRISING THE SAME” (CJ Cheiljedang Corporation, priority 2016, published 2019).
